Data on one compound can be found in US20150126551A1, “USE OF A […] HALIDE DERIVATIVE IN THE TREATMENT OF NEURODEGENERATIVE DISEASES” (Orphazyme ApS, priority 2003, published 2015).

Experiment [1] concerns mSOD1^(G93A) transgenic mice. The text has this:
Transgenic mSOD1^(G93A) mice of both sexes were used in this study.

The subject of experiment [2] is mSOD1^(G93A) transgenic mice. The note with it: mouse, in vivo.

Consider `O=C(O)CC(O)(CC(=O)O)C(=O)O.[O-][n+]1cccc(C(Cl)=NOC[C@H](O)CN2CCCCC2)c1` [compound A, (+)-R-N-[2-hydroxy-3-(1-piperidinyl)-propoxy]-pyridine-1-oxide-3-carboximidoyl chloride citrate], for which, in experiment [1] (10 mg/kg i.p. daily from 35 days of age, 120 days of age, n=10, p=0.030 vs untreated (43.3 ms), wild-type 25.8 ms), the “half relaxation time of EDL (mean +/- S.E.M.)” value stood at 32.2 ms. The “motor units survived in EDL muscles (mean +/- S.E.M.)” value in experiment [1] (10 mg/kg i.p. daily from 35 days of age, assessed at 120 days of age, n=10, p=0.003 vs untreated (8.3), wild-type 28) is listed as 14.3 +/−0.6. For the same compound, the “fatigue index (FI) of EDL (mean +/- S.E.M.)” value in experiment [1] (10 mg/kg i.p. daily, 120 days of age, stimulation 40 Hz, 3 minutes, n=10, p<0.05 vs untreated (0.255), wild-type 0.848) is 0.416+/−0.07. Moreover, the “average lifespan (mean +/- S.E.M.)” value in experiment [1] (treated mSOD1^(G93A) mice, n=7, untreated 125 days, endpoint: inability to right itself and loss of approximately 20% body weight) was determined as 153 ± 2.6 days. The “decline in body weight” value in experiment [1] (treated vs untreated mSOD1^(G93A) mice) is reported as “delayed”. Besides, the increase in lifespan result in experiment [1] (treated vs untreated mSOD1^(G93A) mice, p<0.001) is listed as “over 22%”. In addition, in experiment [2], the “motoneurons surviving in the sciatic motor pool (mean +/- S.E.M.)” value is recorded as 412+/−28.
